Literature values as cited in US20160069160A1, “TREATMENT OF MICROBIAL-INFLUENCED CORROSION” (TRICAN WELL SERVICE LTD., priority 2014, published 2016).

Tested on: microbes

Compound | efficacy at low pH (below pH 5) | concentration required to be effective at pH 7 relative to pH 9 (pH 7 vs pH 9) [times higher] | effect of pH on microbial control
O=CCCCC=O [glutaraldehyde] | significantly reduced | 4 to 6 | 
tetrakis(hydroxymethyl)phosphonium sulfate [THPS] |  |  | unaffected by pH
